In paper PMC5007978, “A chemical with proven clinical safety rescues Down-syndrome-related phenotypes in through DYRK1A inhibition” (Disease Models & Mechanisms, 2016):

What was measured:
[1] = molecular target: T1, DYRK1A (Homo sapiens, UniProt Q13627); set-up: expressed in transfected cells; host or cells: 293T cells; method as in Ogawa et al., 2010; conditions: ref Ogawa et al., 2010; cited from earlier work
[2] = tested on: calcineurin-NFAT signaling; test: NFAT-RE promoter luciferase reporter assay (NRE-Luc) in 293T cells; assay type: cell-based; conditions: IM and PMA (10 nM), 1, 3 and 10 μM
Protocol: Fig. 5. […] Firefly luciferase activities were measured using One-Glo reagents. Luciferase activity in the sample with reporter plasmid alone was set to 1, and the relative luciferase activities were calculated. Means±s.d. were determined from two independent experiments.
Treatment with IM and phorbol 12-myristate 13-acetate (PMA) induced a dramatic increase in luciferase activity (∼20 fold) as a result of the nuclear translocation of NFATc1 and the subsequent transcriptional activation (Fig. 5B). In this situation, the overexpression of DYRK1A suppressed the stimulatory effect of IM and PMA by 75%, resulting in a 4.5-fold increase in luciferase activity compared with that of the control (Fig. 5B).
The firefly luciferase reporter assay was performed using a One-Glo Assay System (Promega) according to the manufacturer's instructions. The transcriptional activity of NFATc1 in 293T cells was measured with a reporter vector (pGL4.30 luc2P/NFAT-RE/Hygro) (Promega) that expresses the firefly luciferase gene under the control of an NFAT-RE promoter. 293T cells were transfected with the DYRK1A-expressing plasmid and reporter plasmid. On the next day, cells were treated with IM (2.5 μM) and phorbol-12-myristate-13-acetate (10 nM) along with the indicated amounts of inhibitors. Cells were further incubated for 8 h and then cell lysates were harvested to measure luciferase activity.

[3] = tested on: mnb-overexpressing Drosophila; test: Wing vein (LV5) defect rescue in mnb-overexpressing flies (MS1096-gal4); assay type: in vivo, Drosophila melanogaster
[4] = molecular target: T2, DYRK4 (Homo sapiens, UniProt Q9NR20); test: In vitro kinase assay, recombinant human DYRK4 (Life Technologies); assay type: biochemical
T2 construct: purchased Life Technologies (Kinase Profiler service)
T2 sequence (Q9NR20 1-520): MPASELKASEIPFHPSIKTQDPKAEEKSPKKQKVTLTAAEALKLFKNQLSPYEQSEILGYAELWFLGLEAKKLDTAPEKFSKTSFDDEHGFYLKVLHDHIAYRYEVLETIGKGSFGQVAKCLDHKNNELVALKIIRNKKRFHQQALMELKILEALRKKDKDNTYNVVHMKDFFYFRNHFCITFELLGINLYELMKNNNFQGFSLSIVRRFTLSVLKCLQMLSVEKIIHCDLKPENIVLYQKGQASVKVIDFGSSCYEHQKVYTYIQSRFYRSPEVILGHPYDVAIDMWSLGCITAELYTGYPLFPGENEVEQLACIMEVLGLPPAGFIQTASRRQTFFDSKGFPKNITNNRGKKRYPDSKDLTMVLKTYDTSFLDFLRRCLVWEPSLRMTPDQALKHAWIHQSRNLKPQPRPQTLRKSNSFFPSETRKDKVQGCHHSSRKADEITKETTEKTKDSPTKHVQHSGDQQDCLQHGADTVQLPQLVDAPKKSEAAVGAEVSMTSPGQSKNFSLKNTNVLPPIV

[5] = molecular target: T3, DYRK3 (Homo sapiens, UniProt O43781); test: In vitro kinase assay, recombinant human DYRK3 (Life Technologies); assay type: biochemical
T3 construct: purchased Life Technologies (Kinase Profiler service)
T3 sequence (O43781 1-588): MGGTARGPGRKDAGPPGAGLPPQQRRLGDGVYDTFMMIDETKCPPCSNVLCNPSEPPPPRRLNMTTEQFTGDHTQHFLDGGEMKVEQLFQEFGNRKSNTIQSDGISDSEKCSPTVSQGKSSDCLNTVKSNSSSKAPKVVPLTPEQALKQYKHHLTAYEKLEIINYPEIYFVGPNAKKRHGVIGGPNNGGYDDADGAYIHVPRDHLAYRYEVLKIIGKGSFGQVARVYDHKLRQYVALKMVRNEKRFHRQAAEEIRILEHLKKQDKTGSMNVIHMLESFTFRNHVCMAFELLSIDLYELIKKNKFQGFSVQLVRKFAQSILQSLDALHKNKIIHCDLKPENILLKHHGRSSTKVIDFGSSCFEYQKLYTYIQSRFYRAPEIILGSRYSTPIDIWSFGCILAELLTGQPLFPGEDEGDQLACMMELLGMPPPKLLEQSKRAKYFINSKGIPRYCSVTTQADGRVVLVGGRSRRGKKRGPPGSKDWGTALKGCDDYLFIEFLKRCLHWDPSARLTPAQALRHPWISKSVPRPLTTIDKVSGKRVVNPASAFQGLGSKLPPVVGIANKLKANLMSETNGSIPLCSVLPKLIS

[6] = molecular target: T1, DYRK1A; test: DYRK1A-mediated Tau (T212) phosphorylation in transfected 293T cells, western blot; assay type: cell-based; set-up: expressed in transfected cells; host or cells: 293T cells; conditions: 6 h treatment, western blot, estimated, read-out: IC50 on Tau phosphorylation (T212) induced by DYRK1A overexpression

Row | IC50 [6] [nM] | SMILES | DYRK1A inhibitory activity compared with harmine [1] | NFATc1-dependent transcriptional activation (NRE-Luc) suppressed by DYRK1A overexpression [2] | concentration required for a similar rescue of wing (LV5) defect [3] [µM] | IC50 [4] [µM] | IC50 [5] [nM]
1 | – | CCN1/C(=C/C(C)=O)Sc2ccc(O)cc21 [INDY] | slightly weaker inhibitory activities than harmine | dose-dependently derepressed | – | – | –
2 | – | COc1ccc2c(c1)[nH]c1c(C)nccc12 [harmine] | – | dose-dependently derepressed | 10 to 25 | 5.88 | 563
3 | ~2000 | CCN1/C(=C/C(C)=O)Sc2ccc(OC(C)=O)cc21 [proINDY] | slightly weaker inhibitory activities than harmine | dose-dependently derepressed | – | – | –
